The values that follow come from patent EP0182984B1, “Use of fully synthetic alpha-human atrial natriuretic peptide (alpha-hANap)” (PHARMA BISSENDORF PEPTIDE GMBH, priority 1984, dated 1992).

For the data set the following is noted: in vivo. The source says:
An LD₅₀ could so far not be determined.

Take `CC[C@H](C)[C@@H]1NC(=O)[C@H](CCCNC(=N)N)NC(=O)[C@H](CC(=O)O)NC(=O)[C@H](CCSC)NC(=O)[C@H](CCCNC(=N)N)NC(=O)CNC(=O)CNC(=O)[C@H](Cc2ccccc2)NC(=O)[C@@H](NC(=O)[C@H](CO)NC(=O)[C@H](CO)NC(=O)[C@H](CCCNC(=N)N)NC(=O)[C@H](CCCNC(=N)N)NC(=O)[C@H](CC(C)C)NC(=O)[C@@H](N)CO)CSSC[C@@H](C(=O)N[C@@H](CC(N)=O)C(=O)N[C@@H](CO)C(=O)N[C@@H](Cc2ccccc2)C(=O)N[C@@H](CCCNC(=N)N)C(=O)N[C@@H](Cc2ccc(O)cc2)C(=O)O)NC(=O)CNC(=O)[C@H](CC(C)C)NC(=O)CNC(=O)[C@H](CO)NC(=O)[C@H](CCC(N)=O)NC(=O)[C@H](C)NC(=O)CNC1=O` [alpha-hANaP, alpha-human atrial natriuretic peptide]: the “side-effects to the heart and circulation system, to the bronchial system, to the liver and renal functions, to the gonads, and to the central nervous system” value is on record as “No serious side-effects”.
